Test [1] concerns the target Angiotensin-converting enzyme (Homo sapiens) (UniProt P12821). The test can be described thus: Selectivity index, ratio of Ki for human ACE N-domain soluble form (1 to 629 residues) expressed in CHO cells to Ki for human testis ACE C-domain lacking unique O-glycosylated region, transmembrane anchor and cytoplasmic tail expressed in CHO cells. The class given is cell-based.

Test [2] has the same target. Nature of the test: Selectivity index, ratio of Ki for human wild type ACE N-domain to Ki for human testis ACE C-domain (unknown origin) using Abz-FRK(Dnp)P-OH as substrate by fluorescence based analysis.
Test [3] shares this target. Nature of the test: Selectivity index, ratio of Ki for human somatic ACE N-terminal domain to human somatic ACE C-terminal domain using MCA-RPPGFSAFK-Dnp-OH as substrate by fluorescence based analysis.

Sequence of Angiotensin-converting enzyme (Homo sapiens) (P12821 whole entry, the tested form may be a part): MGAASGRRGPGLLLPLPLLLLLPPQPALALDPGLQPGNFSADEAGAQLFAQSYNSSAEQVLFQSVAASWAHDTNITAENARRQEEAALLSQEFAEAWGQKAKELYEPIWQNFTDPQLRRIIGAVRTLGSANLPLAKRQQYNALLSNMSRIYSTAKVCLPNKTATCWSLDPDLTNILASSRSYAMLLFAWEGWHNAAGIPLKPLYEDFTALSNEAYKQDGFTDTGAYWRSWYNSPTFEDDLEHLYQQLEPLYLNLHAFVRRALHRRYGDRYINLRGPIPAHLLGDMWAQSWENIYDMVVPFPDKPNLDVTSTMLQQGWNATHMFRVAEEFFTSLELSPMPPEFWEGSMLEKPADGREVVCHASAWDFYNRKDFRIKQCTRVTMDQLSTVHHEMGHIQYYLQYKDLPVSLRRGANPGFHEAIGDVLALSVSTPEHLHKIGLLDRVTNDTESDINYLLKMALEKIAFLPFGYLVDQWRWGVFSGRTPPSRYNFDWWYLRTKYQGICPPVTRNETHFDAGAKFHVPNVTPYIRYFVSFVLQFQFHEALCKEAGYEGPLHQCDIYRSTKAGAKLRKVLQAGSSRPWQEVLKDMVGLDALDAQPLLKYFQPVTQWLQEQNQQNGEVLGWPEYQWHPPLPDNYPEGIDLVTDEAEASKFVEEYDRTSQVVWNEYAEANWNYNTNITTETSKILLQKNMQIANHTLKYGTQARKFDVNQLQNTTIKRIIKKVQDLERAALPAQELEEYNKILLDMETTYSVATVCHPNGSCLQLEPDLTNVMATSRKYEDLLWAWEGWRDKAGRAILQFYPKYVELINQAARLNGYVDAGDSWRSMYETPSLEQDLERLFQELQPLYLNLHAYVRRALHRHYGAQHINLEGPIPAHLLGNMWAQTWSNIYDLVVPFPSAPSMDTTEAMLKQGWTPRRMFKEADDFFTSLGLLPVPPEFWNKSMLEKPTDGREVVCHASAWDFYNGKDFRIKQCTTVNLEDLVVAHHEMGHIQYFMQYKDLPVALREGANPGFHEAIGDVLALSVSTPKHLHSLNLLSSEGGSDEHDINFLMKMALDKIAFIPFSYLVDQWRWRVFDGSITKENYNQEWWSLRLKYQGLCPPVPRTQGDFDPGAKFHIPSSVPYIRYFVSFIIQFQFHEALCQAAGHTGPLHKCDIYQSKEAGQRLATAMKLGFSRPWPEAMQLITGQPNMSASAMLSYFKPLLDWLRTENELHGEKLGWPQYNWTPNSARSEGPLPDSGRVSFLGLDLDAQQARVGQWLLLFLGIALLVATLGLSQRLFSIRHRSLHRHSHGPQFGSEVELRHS

For `CS(=O)(=O)N[C@@H](CCCCN)C(=O)NC[C@H](CC1(C(=O)N[C@@H](Cc2ccc(O)cc2)C(=O)O)CCCC1)C(=O)O`, the Ratio Ki in test [1] was found to be 12.5.
On to `NCCCC[C@H](N[C@@H](CCc1ccccc1)C(=O)O)C(=O)N1CCC[C@H]1C(=O)O`, for which the Ratio Ki in test [2] worked out at 4.
With `O=C(N[C@@H](Cc1ccccc1)P(=O)(O)[C@@H]1CCC[C@H]1C(=O)N[C@@H](Cc1c[nH]c2ccccc12)C(=O)O)OCc1ccccc1`, the Ratio Ki in test [3] came out at 3000.
As for `NCCCC[C@H](N[C@@H](CCc1ccccc1)C(=O)O)C(=O)N[C@H](Cc1c[nH]c2ccccc12)C(=O)O`, the Ratio Ki in test [2] was determined as 243.

(Values after ChEMBL document CHEMBL4402607, “Molecular Basis for Omapatrilat and Sampatrilat Binding to Neprilysin-Implications for Dual Inhibitor Design with Angiotensin-Converting Enzyme” (J Med Chem, 2020).)
